Data taken from US7964725B2, “Heteroarylbenzamide derivatives for use in the treatment of diabetes” (AstraZeneca AB, priority 2006, dated 2011).
pEC50: −log10 of the molar value.

test system: not given; experiment: not given; details: not given

Compound | melting point
Cc1cnc(NC(=O)c2cc(Oc3cnc(C(=O)N(C)C)cn3)cc(O[C@@H](C)COC(F)F)c2)cn1 [Example 2, 5-[3-[(2S)-1-(difluoromethoxy)propan-2-yl]oxy-5-[(5-methylpyrazin-2-yl)carbamoyl]phenoxy]-N,N-dimethyl-pyrazine-2-carboxamide] | ~ 75 °C

target: T1, recombinant human pancreatic GLK (Homo sapiens, UniProt P35557); experiment: Enzymatic activity: activation of glucokinase in the absence of GLKRP; type: biochemical; details: G-6-P dehydrogenase NADP/NADPH coupled assay, OD 340 nm
T1 construct: 6-His (N); made in house; host or cells: E. coli BL21
T1 sequence (P35557 1-465): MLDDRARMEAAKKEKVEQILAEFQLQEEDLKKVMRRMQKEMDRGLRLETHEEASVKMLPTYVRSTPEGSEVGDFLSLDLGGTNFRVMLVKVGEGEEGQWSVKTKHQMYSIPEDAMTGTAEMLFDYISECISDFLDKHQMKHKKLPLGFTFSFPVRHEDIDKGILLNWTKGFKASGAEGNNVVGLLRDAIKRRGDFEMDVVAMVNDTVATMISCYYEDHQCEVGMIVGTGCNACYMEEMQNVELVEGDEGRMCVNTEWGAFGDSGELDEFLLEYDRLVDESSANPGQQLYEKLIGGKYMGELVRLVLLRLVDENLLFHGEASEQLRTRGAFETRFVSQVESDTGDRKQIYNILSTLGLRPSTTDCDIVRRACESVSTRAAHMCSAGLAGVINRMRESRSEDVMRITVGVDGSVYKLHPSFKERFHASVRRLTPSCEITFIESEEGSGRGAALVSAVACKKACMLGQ
Description: Enzymatic activity of recombinant human pancreatic GLK may be measured by incubating GLK, ATP and glucose. The rate of product formation may be determined by coupling the assay to a G-6-P dehydrogenase, NADP/NADPH system and measuring the linear increase with time of optical density at 340 nm Brocklehurst et al (Diabetes 2004, 53, 535-541). Activation of GLK by compounds can be assessed using this assay in the presence or absence of GLKRP as described in Brocklehurst et al (Diabetes 2004, 53, 535-541).
Human GLK and GLKRP cDNA was obtained by PCR from human pancreatic and hepatic mRNA respectively, using established techniques described in Sambrook J, Fritsch E F & Maniatis T, 1989. PCR primers were designed according to the GLK and GLKRP cDNA sequences shown in Tanizawa et al., Proc Natl Acad Sci 1991 August 15; 88(16):7294-7 and Warner et al., Mamm Genome. 1995 August; 6(8):532-6.
GLK was expressed from the vector pTB375NBSE in E. coli BL21 cells, producing a recombinant protein containing a 6-His tag immediately adjacent to the N-terminal methionine. Alternatively, another suitable vector is pET21(+)DNA, Novagen, Cat number 697703. The 6-His tag was used to allow purification of the recombinant protein on a column packed with nickel-nitrilotriacetic acid agarose purchased from Qiagen (cat no 30250).

pEC50 | Compound
7.48 | C[C@@H](COC(F)F)Oc1cc(Oc2ccc(S(C)(=O)=O)nc2)cc(C(=O)Nc2cc[nH]n2)c1 [Example 4, 3-[(2S)-1-(difluoromethoxy)propan-2-yl]oxy-5-(6-methylsulfonylpyridin-3-yl)oxy-N-(1H-pyrazol-3-yl)benzamide]
7.10 | C[C@@H](COC(F)F)Oc1cc(Oc2cnc(C(=O)N(C)C)cn2)cc(C(=O)Nc2ccn(C)n2)c1 [Example 5, 5-[3-[(2S)-1-(difluoromethoxy)propan-2-yl]oxy-5-[(1-methylpyrazol-3-yl)carbamoyl]phenoxy]-N,N-dimethyl-pyrazine-2-carboxamide]
7.11 | C[C@@H](COC(F)F)Oc1cc(Oc2ccc(S(C)(=O)=O)nc2)cc(C(=O)Nc2ccn(C)n2)c1 [Example 6, 3-[(2S)-1-(difluoromethoxy)propan-2-yl]oxy-N-(1-methylpyrazol-3-yl)-5-(6-methylsulfonylpyridin-3-yl)oxy-benzamide]

Continued, compound first:

Compound | pEC50
C[C@@H](COC(F)F)Oc1cc(Oc2cnc(C(=O)N(C)C)cn2)cc(C(=O)Nc2cc[nH]n2)c1 [Example 3, 5-[3-[(2S)-1-(Difluoromethoxy)propan-2-yl]oxy-5-(1H-pyrazol-3-ylcarbamoyl)phenoxy]-N,N-dimethyl-pyrazine-2-carboxamide] | 7.19
Cc1cnc(NC(=O)c2cc(Oc3ccc(S(C)(=O)=O)nc3)cc(O[C@@H](C)COC(F)F)c2)cn1 [Example 1, 3-[(2S)-1-(difluoromethoxy)propan-2-yl]oxy-N-(5-methylpyrazin-2-yl)-5-(6-methylsulfonylpyridin-3-yl)oxy-benzamide] | 7.16
Cc1cnc(NC(=O)c2cc(Oc3cnc(C(=O)N(C)C)cn3)cc(O[C@@H](C)COC(F)F)c2)cn1 [Example 2, 5-[3-[(2S)-1-(difluoromethoxy)propan-2-yl]oxy-5-[(5-methylpyrazin-2-yl)carbamoyl]phenoxy]-N,N-dimethyl-pyrazine-2-carboxamide] | 7.26
